Laboratory results from patent US10405547B2, “Substituted cyclic amides as herbicides” (FMC Corporation, priority 2015, dated 2019).

How the values were obtained:
Type in all cases: in vivo
[1] = test system: pigweed (Amaranthus retroflexus); assay: Test A postemergence, pigweed; details: visual injury, 0 to 100 scale (0 no effect, 100 complete control), approximately 10 days
In short: (§1)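 Greenhouse assay; ~10 d; visual injury vs untreated control, scored 0 = no effect through 100 = complete control. Post-emergent seedlings at one–two leaves; pre-emergent seeds in loam/sand given a directed soil spray.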

[2] = test system: barnyardgrass (Echinochloa crus-galli); assay: Test A preemergence, barnyardgrass; details: 0 to 100 scale (0 no effect, 100 complete control)
In short: as §1

[3] = test system: pigweed (Amaranthus retroflexus); assay: Test A preemergence, pigweed; details: 0 to 100 scale (0 no effect, 100 complete control)
In short: as §1

[4] = test system: ragweed (common ragweed, Ambrosia elatior); assay: Test A postemergence, ragweed; details: visual injury, 0 to 100 scale (0 no effect, 100 complete control), approximately 10 days
In short: as §1

[5] = test system: ducksalad (Heteranthera limosa); assay: Test B flooded paddy test, ducksalad; details: applied to paddy water, visual rating after 13 to 15 days, scale 0 (no effect) to 100 (complete control)
In short: (§2)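 Pots were flooded to 3 cm above the soil surface at treatment, compound applied directly to the paddy water, and that depth held throughout. Plants were kept in a greenhouse for 13 to 15 days, then visually rated against untreated controls.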

[6] = test system: galium (catchweed bedstraw, Galium aparine); assay: Test A postemergence, galium; details: visual injury, 0 to 100 scale (0 no effect, 100 complete control), approximately 10 days
In short: as §1

kochia (Kochia scoparia) [7] = assay: Test A preemergence, kochia; details: 0 to 100 scale (0 no effect, 100 complete control)
In short: as §1

kochia (Kochia scoparia) [8] = assay: Test A postemergence, kochia; details: visual injury, 0 to 100 scale (0 no effect, 100 complete control), approximately 10 days
In short: as §1

[9] = test system: ryegrass, Italian (Lolium multiflorum); assay: Test A postemergence, Italian ryegrass; details: visual injury, 0 to 100 scale (0 no effect, 100 complete control), approximately 10 days
In short: as §1

[10] = test system: barnyardgrass (Echinochloa crus-galli); assay: Test B flooded paddy test, barnyardgrass; details: applied to paddy water, visual rating after 13 to 15 days, scale 0 (no effect) to 100 (complete control)
In short: as §2

rice (Oryza sativa) = assay: Test B flooded paddy test, rice; details: applied to paddy water, visual rating after 13 to 15 days, scale 0 (no effect) to 100 (complete control)
In short: as §2

[11] = test system: blackgrass (Alopecurus myosuroides); assay: Test A postemergence, blackgrass; details: visual injury, 0 to 100 scale (0 no effect, 100 complete control), approximately 10 days
In short: as §1

[12] = test system: ryegrass, Italian (Lolium multiflorum); assay: Test A preemergence, Italian ryegrass; details: 0 to 100 scale (0 no effect, 100 complete control)
In short: as §1

[13] = test system: wheat (Triticum aestivum); assay: Test A postemergence, wheat; details: visual injury, 0 to 100 scale (0 no effect, 100 complete control), approximately 10 days
In short: as §1

[14] = test system: sedge, umbrella (small-flower umbrella sedge, Cyperus difformis); assay: Test B flooded paddy test, umbrella sedge; details: applied to paddy water, visual rating after 13 to 15 days, scale 0 (no effect) to 100 (complete control)
In short: as §2

[15] = test system: ragweed (common ragweed, Ambrosia elatior); assay: Test A preemergence, ragweed; details: 0 to 100 scale (0 no effect, 100 complete control)
In short: as §1

[16] = test system: foxtail, giant (Setaria faberii); assay: Test A preemergence, giant foxtail; details: 0 to 100 scale (0 no effect, 100 complete control)
In short: as §1

[17] = test system: foxtail, giant (Setaria faberii); assay: Test A postemergence, giant foxtail; details: visual injury, 0 to 100 scale (0 no effect, 100 complete control), approximately 10 days
In short: as §1

corn (Zea mays) = assay: Test A postemergence, corn; details: visual injury, 0 to 100 scale (0 no effect, 100 complete control), approximately 10 days
In short: as §1

[18] = test system: barnyardgrass (Echinochloa crus-galli); assay: Test A postemergence, barnyardgrass; details: visual injury, 0 to 100 scale (0 no effect, 100 complete control), approximately 10 days
In short: as §1

Row | Compound | Plant response rating, Pigweed ([1]; 125 g ai/ha) | Plant response rating, Pigweed ([1]; 500 g ai/ha) | Plant response rating, Barnyardgrass ([2]; 125 g ai/ha) | Plant response rating, Barnyardgrass ([2]; 500 g ai/ha) | Plant response rating, Pigweed ([3]; 125 g ai/ha) | Plant response rating, Pigweed ([3]; 500 g ai/ha) | Plant response rating, Ragweed ([4]; 125 g ai/ha) | Plant response rating, Ragweed ([4]; 500 g ai/ha) | Plant response rating, Galium ([6]; 125 g ai/ha) | Plant response rating, Galium ([6]; 500 g ai/ha) | Plant response rating, Kochia (kochia (Kochia scoparia) [7]; 125 g ai/ha) | Plant response rating, Kochia (kochia (Kochia scoparia) [8]; 125 g ai/ha) | Plant response rating, Kochia (kochia (Kochia scoparia) [8]; 500 g ai/ha) | Plant response rating, Ryegrass, Italian ([9]; 125 g ai/ha) | Plant response rating, Ryegrass, Italian ([9]; 500 g ai/ha) | Plant response rating, Blackgrass ([11]; 125 g ai/ha) | Plant response rating, Blackgrass ([11]; 500 g ai/ha) | Plant response rating, Ryegrass, Italian ([12]; 125 g ai/ha) | Plant response rating, Ryegrass, Italian ([12]; 500 g ai/ha) | Plant response rating, Wheat ([13]; 125 g ai/ha) | other results
1 | O=C1NCC(c2cccc(Cn3ccc(C(F)(F)F)n3)c2)C1C(=O)Nc1ccccc1F (centres unmarked) [Compound 23] | 0 | 0 | 0 | 20 | 0 | 0 | 0 | 0 | 0 | 0 | 0 | 0 | 0 | 0 | 0 | 0 | 0 | 0 | 0 | 0 | Plant response rating, Ducksalad (Flood) ([5]; 500 g ai/ha): 0; Plant response rating, Kochia (kochia (Kochia scoparia) [7]; 500 g ai/ha): 20; Plant response rating, Barnyardgrass (Flood) ([10]; 500 g ai/ha): 0; Plant response rating, Rice (Flood) (rice (Oryza sativa); 500 g ai/ha): 0; Plant response rating, Wheat ([13]; 500 g ai/ha): 0; Plant response rating, Sedge, Umbrella (Flood) ([14]; 500 g ai/ha): 0; Plant response rating, Ragweed ([15]; 125 g ai/ha): 0; Plant response rating, Ragweed ([15]; 500 g ai/ha): 0; Plant response rating, Foxtail, Giant ([16]; 125 g ai/ha): 20; Plant response rating, Foxtail, Giant ([16]; 500 g ai/ha): 50; Plant response rating, Foxtail, Giant ([17]; 125 g ai/ha): 0; Plant response rating, Foxtail, Giant ([17]; 500 g ai/ha): 20; Plant response rating, Corn (corn (Zea mays); 125 g ai/ha): 0; Plant response rating, Corn (corn (Zea mays); 500 g ai/ha): 0; Plant response rating, Barnyardgrass ([18]; 125 g ai/ha): 0; Plant response rating, Barnyardgrass ([18]; 500 g ai/ha): 30
2 | O=C1NCC(c2cccc(Oc3ccccn3)c2)C1C(=O)Nc1cccc(F)c1F (centres unmarked) [Compound 68] | 0 | 0 | 20 | 50 | 0 | 0 | 0 | 0 | 0 | 0 | 0 | 0 | 0 | 0 | 0 | 0 | 20 | 0 | 0 | 0 | Plant response rating, Ducksalad (Flood) ([5]; 500 g ai/ha): 80; Plant response rating, Kochia (kochia (Kochia scoparia) [7]; 500 g ai/ha): 0; Plant response rating, Barnyardgrass (Flood) ([10]; 500 g ai/ha): 20; Plant response rating, Rice (Flood) (rice (Oryza sativa); 500 g ai/ha): 0; Plant response rating, Wheat ([13]; 500 g ai/ha): 0; Plant response rating, Sedge, Umbrella (Flood) ([14]; 500 g ai/ha): 0; Plant response rating, Ragweed ([15]; 125 g ai/ha): 0; Plant response rating, Ragweed ([15]; 500 g ai/ha): 0; Plant response rating, Foxtail, Giant ([16]; 125 g ai/ha): 60; Plant response rating, Foxtail, Giant ([16]; 500 g ai/ha): 90; Plant response rating, Foxtail, Giant ([17]; 125 g ai/ha): 0; Plant response rating, Foxtail, Giant ([17]; 500 g ai/ha): 60; Plant response rating, Corn (corn (Zea mays); 125 g ai/ha): 0; Plant response rating, Corn (corn (Zea mays); 500 g ai/ha): 0; Plant response rating, Barnyardgrass ([18]; 125 g ai/ha): 10; Plant response rating, Barnyardgrass ([18]; 500 g ai/ha): 40
3 | O=C1NCC(c2ccccc2Cn2ccc(C(F)(F)F)n2)C1C(=O)Nc1ccc(F)c(F)c1F (centres unmarked) [Compound 58] | 0 | 0 | 30 | 90 | 0 | 0 | 0 | 0 | 0 | 20 | 0 | 0 | 20 | 0 | 0 | 0 | 0 | 0 | 20 | 0 | Plant response rating, Ducksalad (Flood) ([5]; 250 g ai/ha): 0; Plant response rating, Barnyardgrass (Flood) ([10]; 250 g ai/ha): 0; Plant response rating, Rice (Flood) (rice (Oryza sativa); 250 g ai/ha): 0; Plant response rating, Wheat ([13]; 500 g ai/ha): 0; Plant response rating, Sedge, Umbrella (Flood) ([14]; 250 g ai/ha): 0; Plant response rating, Ragweed ([15]; 125 g ai/ha): 0; Plant response rating, Ragweed ([15]; 500 g ai/ha): 0; Plant response rating, Foxtail, Giant ([16]; 125 g ai/ha): 60; Plant response rating, Foxtail, Giant ([16]; 500 g ai/ha): 90; Plant response rating, Foxtail, Giant ([17]; 125 g ai/ha): 30; Plant response rating, Foxtail, Giant ([17]; 500 g ai/ha): 60; Plant response rating, Corn (corn (Zea mays); 125 g ai/ha): 0; Plant response rating, Corn (corn (Zea mays); 500 g ai/ha): 0; Plant response rating, Barnyardgrass ([18]; 125 g ai/ha): 0; Plant response rating, Barnyardgrass ([18]; 500 g ai/ha): 60
